Measurements from patent publication US20200055839A1 (priority 2017, published 2020).

What follows are compounds tested on NL-RLuc virus (assay: Inhibition of HIV replication (NL-RLuc virus, luciferase readout in MT-2 cells)). Conditions: Human immunodeficiency virus 1, MT2, 120 h, MT-2 cells infected with NL-RLuc virus, 5 days of incubation, 10% FBS, at least 2 experiments.
Type: cell-based
How it was run: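 EC50 derived via median effect equation from at least 2 experiments, using luciferase expression as virus-growth readout. Replication-competent NL-RLuc reporter virus (nef partly replaced by Renilla luciferase) infected MT-2 cells with serial compound dilutions; 5-day incubation in RPMI 1640 plus 10% FBS.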

In order of falling EC50:
1. Cc1cc(OCC(C)C)ncc1-c1cnc(C)c([C@H](OC(C)(C)C)C(=O)O)c1N1CCC(C)(C)CC1 [Example 429, (2S)-2-tert-Butoxy-2-(4-(4,4-dimethylpiperidin-1-yl)-6′-isobutoxy-4′,6-dimethyl-3, 3′-bipyridin-5-yl)acetic acid]  219 nM
2. Cc1nc(OCC(C)C)c(Cl)cc1-c1cnc(C)c([C@H](OC(C)(C)C)C(=O)O)c1N1CCC(C)(C)CC1 [Example 425, (S)-2-(tert-Butoxy)-2-(5′-chloro-4-(4,4-dimethylpiperidin-1-yl)-6′-isobutoxy-2′,6-dimethyl-[3, 3′-bipyridin]-5-yl)acetic acid]  126 nM
3. Cc1ncc(-c2ccc(OCC(C)C)nc2Cl)c(N2CCC(C)(C)CC2)c1[C@H](OC(C)(C)C)C(=O)O [Example 431, (2S)-2-tert-Butoxy-2-(2′-chloro-4-(4,4-dimethylpiperidin-1-yl)-6′-isobutoxy-6-methyl-3, 3′-bipyridin-5-yl)acetic acid]  32 nM
4. Cc1cccc(Cl)c1C(C)Oc1ccc(-c2cnc(C)c([C@H](OC(C)(C)C)C(=O)O)c2N2CCC(C)(C)CC2)cn1 (stereo partly drawn) [Example 424, (2S)-2-(tert-Butoxy)-2-(6′-(1-(2-chloro-6-methylphenyl)ethoxy)-4-(4,4-dimethylpiperidin-1-yl)-6-methyl-[3, 3′-bipyridin]-5-yl)acetic acid]  16 nM
5. Cc1ncc(-c2ccc(C(F)(F)CC(C)C)nc2)c(N2CCC(C)(C)CC2)c1[C@H](OC(C)(C)C)C(=O)O [Example 430, (S)-2-tert-Butoxy-2-(6′-(1,1-difluoro-3-methylbutyl)-4-(4,4-dimethylpiperidin-1-yl)-6-methyl-3, 3′-bipyridin-5-yl)acetic acid]  16 nM
6. Cc1ncc(-c2ccc(CCC(C)C)nc2)c(N2CCC(C)(C)CC2)c1[C@H](OC(C)(C)C)C(=O)O [Example 420, (S)-2-(tert-Butoxy)-2-(4-(4,4-dimethylpiperidin-1-yl)-6′-isopentyl-6-methyl-[3, 3′-bipyridin]-5-yl)acetic acid]  13 nM
7. Cc1ncc(-c2ccc(/C=C\C(C)C)nc2)c(N2CCC(C)(C)CC2)c1[C@H](OC(C)(C)C)C(=O)O [Example 422, (S,Z)-2-(tert-Butoxy)-2-(4-(4,4-dimethylpiperidin-1-yl)-6-methyl-6′-(3-methylbut-1-en-1-yl)-[3, 3′-bipyridin]-5-yl)acetic acid]  10 nM
8. Cc1ncc(-c2ccc(/C=C/C(C)C)nc2)c(N2CCC(C)(C)CC2)c1[C@H](OC(C)(C)C)C(=O)O [Example 421, (S,E)-2-(tert-Butoxy)-2-(4-(4,4-dimethylpiperidin-1-yl)-6-methyl-6′-(3-methylbut-1-en-1-yl)-[3, 3′-bipyridin]-5-yl)acetic acid]  8 nM
9. Cc1cccc(Cl)c1COc1ccc(-c2cnc(C)c([C@H](OC(C)(C)C)C(=O)O)c2N2CCC(C)(C)CC2)cn1 [Example 423, (S)-2-(tert-Butoxy)-2-(6′-((2-chloro-6-methylbenzyl)oxy)-4-(4,4-dimethylpiperidin-1-yl)-6-methyl-[3, 3′-bipyridin]-5-yl)acetic acid]  8 nM
10. Cc1cc(-c2cnc(C)c([C@H](OC(C)(C)C)C(=O)O)c2N2CCC(C)(C)CC2)cnc1OCC(C)C [Example 428, (S)-2-tert-Butoxy-2-(4-(4,4-dimethylpiperidin-1-yl)-6′-isobutoxy-5′,6-dimethyl-3, 3′-bipyridin-5-yl)acetic acid]  7 nM
11. Cc1ncc(-c2ccc(OCCC(C)C)nc2)c(N2CCC(C)(C)CC2)c1[C@H](OC(C)(C)C)C(=O)O [Example 427, (S)-2-tert-Butoxy-2-(4-(4,4-dimethylpiperidin-1-yl)-6′-(isopentyloxy)-6-methyl-3, 3′-bipyridin-5-yl)acetic acid]  2 nM
12. CCCCOc1ccc(-c2cnc(C)c([C@H](OC(C)(C)C)C(=O)O)c2N2CCC(C)(C)CC2)cn1 [Example 426, (S)-2-tert-Butoxy-2-(6′-butoxy-4-(4,4-dimethylpiperidin-1-yl)-6-methyl-3, 3′-bipyridin-5-yl)acetic acid]  0.3 nM
